Laboratory results taken from US12102631B2, “Quinolylnitrones for the treatment and prevention of a cerebral stroke or ischaemia” (ISQUAEMIA BIOTECH, S.L., priority 2018, dated 2024).
pIC50: −log10 of the molar value. One block for each molecule: values may come before it.

What was measured:
Type in all cases: biochemical
[1] = Inhibition of linoleic acid peroxidation (AAPH, ILPO); conditions: tested at 100 μM
Procedure: Inhibition of Linoleic Acid Peroxidation.^32 For initiating the free radical, 2,2′-azobis(2-amidinopropane) dihydrochloride (AAPH) is used. The final solution in the UV cuvette consisted of ten microliters of the 16 mM linoleate sodium dispersion 0.93 mL of 0.05 M phosphate buffer, pH 7.4, thermostatted at 37° C. 50 μL of 40 mM AAPH solution was added as a free radical initiator at 37° C. under air and 10 μL of the tested compounds. The oxidation of linoleic acid sodium salt results a conjugated diene hydroperoxide. The reaction is monitored at 234 nm (Table 1).
3.3. Anti-lipid peroxidation activity of QNs. The water-soluble azo compound 2,2′-azobis(2-amidinopropane) dihydrochloride (AAPH) has been extensively used as a clean and controllable source of thermally produced alkyl peroxyl free radicals through spontaneous thermal decomposition. […] In the AAPH assay to determine the inhibition of the lipid peroxidation (ILPO), the highly reactive alkylperoxyl radicals are intercepted mainly by a hydrogen atom transfer from the antioxidant. As shown, QN23 presented limited value, where QNs 19, 22 and 24 presented very high values (Table 3).

[2] = Interaction with the stable radical DPPH; conditions: tested at 100 μM; reducing activity
Procedure: Interaction of the nitrone with the Stable Radical 1,1-diphenyl-picrylhydrazyl (DPPH) To a solution of DPPH in absolute ethanol the appropriate volume of the compounds (0.1 mM final concentrations) dissolved in DMSO was added. The absorbance was recorded at 517 nm after 20 and 60 min at room temperature (Table 1).
3.1. Antioxidant activity of QNs using radical DPPH. […] This purple colour generally disappears in the presence of an antioxidant due to the reduction of the DPPH radical by single electron transfer (SET) from the antioxidant converted it to colourless/bleached product. […] In this assay, we measured the initial absorbance of DPPH and the absorbance once the potential antioxidant was added. The antioxidant activity was expressed as the percentage of reducing activity.

[3] = ABTS radical cation decolorization assay; conditions: tested at 100 μM
Procedure: ABTS^⋅+-decolorization assay in ethanolic solution for antioxidant activity.^32,35 ABTS is dissolved in water to a 2 mM concentration. ABTS radical cation (ABTS^⋅+) is produced by reacting the ABTS stock solution with 0.17 mM potassium persulfate in phosphate buffer (pH 7.4, 20 mM) and allowing the mixture to stand in the dark at room temperature for 12-16 h before use. For steady state measurements, […] ABTS^⋅+ was used. For the present study, the […] ABTS^⋅ solution (200 μL) was diluted with ethanol (790 μL) to an absorbance of 0.70 at 734 nm, equilibrated at room temperature, mixed with 10 μL of the tested compounds (stock solutions 10 mM) and the absorbance reading was taken at room temperature 1 min after the initial mixing. Trolox was used as a standard.
3.4. ABTS^⋅+ antioxidant activity of QNs. The ABTS^⋅+ radical cation, derived from the oxidation of 2,2′-azino-bis(3-ethylbenzothiazoline-6-sulphonic acid) (ABTS) by potassium persulfate, is a green-blue stable chromophore, which can be analyzed in the course of a decolorization assay. The addition of electron-donor antioxidants leads to ABTS^⋅+ reduction. The chemistry taking place involves the direct generation of the ABTS^⋅+ with no involvement of an intermediary radical. […] Again, and as shown, QN23 presented limited activity beside with 19, although the others nitrones had no activity (Table 3).

[4] = Superoxide radical scavenging (hypoxanthine/xanthine oxidase system); conditions: tested at 100 μM (0.1 mM)
From the text: 3.7. Superoxide radical scavenging activity. Superoxide anion radical (O2⋅−) is less toxic than hydroxyl radical, but still one of the most known harmful toxic ROS. In physiological conditions, superoxide dismutase catalyzes its conversion to H2O2, which is the precursor for the formation of hydroxyl radicals in the presence of iron ions.43 Superoxide anion radicals O2⋅− and H2O2 are ROS produced in vivo through a one-electron reduction process of O2. The evaluation of superoxide anion radical scavenging activity can be determined using assays involving non-enzymatic or enzymatic production of superoxide anions. In this assay, superoxide anion radicals were generated by a hypoxanthine and xanthine oxidase reaction system, and the O2⋅− scavenging activity (%) has been measured spectrophotometrically.

soybean lipoxygenase LOX = target: T1, soybean lipoxygenase LOX (Glycine max, UniProt P08170); assay: Lipoxygenase (LOX) inhibition, UV-based enzyme assay; conditions: for LOX (%): tested at 100 μM
T1 sequence (P08170 1-839): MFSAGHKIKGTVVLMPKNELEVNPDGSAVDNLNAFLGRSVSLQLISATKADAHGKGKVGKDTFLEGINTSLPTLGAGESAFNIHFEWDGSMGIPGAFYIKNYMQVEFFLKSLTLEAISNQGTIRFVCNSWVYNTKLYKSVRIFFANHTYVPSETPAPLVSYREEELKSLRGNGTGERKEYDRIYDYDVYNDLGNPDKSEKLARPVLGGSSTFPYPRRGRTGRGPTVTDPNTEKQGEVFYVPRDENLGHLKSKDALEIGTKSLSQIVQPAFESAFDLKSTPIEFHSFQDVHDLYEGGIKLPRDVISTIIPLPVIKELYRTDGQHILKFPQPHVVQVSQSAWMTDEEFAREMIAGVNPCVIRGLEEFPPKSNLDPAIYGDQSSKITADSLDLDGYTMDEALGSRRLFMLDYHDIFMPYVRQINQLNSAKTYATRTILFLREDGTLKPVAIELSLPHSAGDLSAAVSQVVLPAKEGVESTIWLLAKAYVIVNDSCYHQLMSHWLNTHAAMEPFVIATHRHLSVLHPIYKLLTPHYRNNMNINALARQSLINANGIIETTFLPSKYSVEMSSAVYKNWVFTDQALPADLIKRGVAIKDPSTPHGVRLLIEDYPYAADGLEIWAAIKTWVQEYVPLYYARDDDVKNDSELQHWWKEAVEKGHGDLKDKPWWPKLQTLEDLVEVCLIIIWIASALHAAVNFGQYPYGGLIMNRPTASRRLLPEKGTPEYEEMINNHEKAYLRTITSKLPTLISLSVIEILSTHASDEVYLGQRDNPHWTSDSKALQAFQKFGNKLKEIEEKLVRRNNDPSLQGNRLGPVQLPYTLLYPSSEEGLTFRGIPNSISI
From the text: 3.5. Lipoxygenase inhibition of QNs. […] A key strategy to prevent potential damage to cellular compounds such as DNA, proteins and lipids is to reduce the free radical load. […] LOX index, a novel predictive biochemical marker for coronary heart disease and stroke. […] Thus, LOX inhibitors may provide multifactorial protection against ischemic injury. […] Most of the LOX inhibitors are often antioxidants or free radical scavengers.

SMILES: CC(C)(C)/[N+]([O-])=C/c1ccc(S(=O)(=O)O)cc1S(=O)(=O)O [Compound 2, sodium (Z)-4-((tert-butyloxidoazanylidene)methyl)benzene-1,3-disulfonate, reference compound]
ILPO (%) / AAPH (%) [1]: no
DPPH (%) [2]: no
ABTS*+ (%) [3]: no
O2*− (%) [4]: no activity and no
pIC50 (soybean lipoxygenase LOX): 4.24

SMILES: CC(C)(C)/[N+]([O-])=C/c1cc2ccccc2nc1Cl [Compound 18, (Z)—N-t-Butyl-1-(2-chloroquinolin-3-yl)methanimine oxide]
ILPO (%) / AAPH (%) [1]: no
DPPH (%) [2]: 7%
ABTS*+ (%) [3]: no
O2*− (%) [4]: 16%

pIC50 (soybean lipoxygenase LOX): 4.44
SMILES: CC(C)(C)/[N+]([O-])=C/c1cc2ccccc2[nH]c1=O [Compound 19, (Z)—N-tert-Butyl-1-(2-oxo-1,2-dihydroquinolin-3-yl)methanimine oxide]
ILPO (%) / AAPH (%) [1]: 100%
DPPH (%) [2]: no
ABTS*+ (%) [3]: 6%
O2*− (%) [4]: 23%

LOX (%) (soybean lipoxygenase LOX): 26%
SMILES: COc1ccc2nc(Cl)c(/C=[N+](/C)[O-])cc2c1 [Compound 22, (Z)-1-(2-Chloro-6-methoxyquinolin-3-yl)-N-methylmethanimine oxide]
ILPO (%) / AAPH (%) [1]: 100%
DPPH (%) [2]: no
ABTS*+ (%) [3]: no
O2*− (%) [4]: 29%

SMILES: COc1ccc2nc(Cl)c(/C=[N+](\[O-])C(C)(C)C)cc2c1 [Compound 23, (Z)—N-tert-Butyl-1-(2-chloro-6-methoxyquinolin-3-yl)methanimine oxide]
ILPO (%) / AAPH (%) [1]: 22%
DPPH (%) [2]: 4%
ABTS*+ (%) [3]: 7%
O2*− (%) [4]: 5%
LOX (%) (soybean lipoxygenase LOX): 29%

pIC50 (soybean lipoxygenase LOX): 4.00
SMILES: COc1ccc2nc(Cl)c(/C=[N+](\[O-])Cc3ccccc3)cc2c1 [Compound 24, (Z)—N-Benzyl-1-(2-chloro-6-methoxyquinolin-3-yl)methanimine oxide]
ILPO (%) / AAPH (%) [1]: 100%
DPPH (%) [2]: 3%
ABTS*+ (%) [3]: no
O2*− (%) [4]: 12.5%

pIC50 (soybean lipoxygenase LOX): 5.12
SMILES: COc1ccc2nc(Cl)c(C=O)cc2c1 [Compound 32, 2-chloro-6-methoxyquinoline-3-carbaldehyde, reference compound]
ILPO (%) / AAPH (%) [1]: 25%
DPPH (%) [2]: 1%
ABTS*+ (%) [3]: 5%
O2*− (%) [4]: 23%
